# Data published in patent EP2970215B1, “PYRROLIDINE DERIVATIVES, PHARMACEUTICAL COMPOSITIONS CONTAINING THEM, AND THEIR USE IN THERAPY” (AbbVie Deutschland GmbH & Co. KG, priority 2013, dated 2014).
# Target: T1, human GlyT1c transporter (Homo sapiens, UniProt P48067)
# T1 construct: expressed in transfected cells; host or cells: CHO cells (recombinant; line hGlyT1c_5_CHO is named for the uptake assay)
# T1 sequence (P48067 1-706): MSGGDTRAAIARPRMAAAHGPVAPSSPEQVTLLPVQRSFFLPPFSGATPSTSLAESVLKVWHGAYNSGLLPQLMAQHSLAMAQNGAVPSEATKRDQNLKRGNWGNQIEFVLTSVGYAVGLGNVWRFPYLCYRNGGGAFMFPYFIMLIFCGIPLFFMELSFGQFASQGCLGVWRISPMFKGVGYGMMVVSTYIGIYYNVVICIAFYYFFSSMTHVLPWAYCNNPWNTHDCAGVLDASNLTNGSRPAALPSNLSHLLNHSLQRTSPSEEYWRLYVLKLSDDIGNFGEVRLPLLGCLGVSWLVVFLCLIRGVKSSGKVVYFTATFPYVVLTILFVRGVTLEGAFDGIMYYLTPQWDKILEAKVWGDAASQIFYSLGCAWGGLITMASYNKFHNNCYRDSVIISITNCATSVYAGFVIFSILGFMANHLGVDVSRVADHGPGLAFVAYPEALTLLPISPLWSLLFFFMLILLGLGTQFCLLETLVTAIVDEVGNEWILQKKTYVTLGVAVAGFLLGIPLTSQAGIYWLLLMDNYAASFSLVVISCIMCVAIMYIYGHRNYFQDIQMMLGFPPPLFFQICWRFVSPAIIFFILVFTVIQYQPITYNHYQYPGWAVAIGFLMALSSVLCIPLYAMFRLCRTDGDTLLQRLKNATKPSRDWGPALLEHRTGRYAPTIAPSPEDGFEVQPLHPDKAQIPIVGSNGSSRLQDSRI
# Assay: Radioligand binding assay using recombinant CHO cell membranes expressing human GlyT1
# Settings: radioligand binding to human GlyT1c transporter-expressing membranes
# Text: 2. Radioligand binding assays using recombinant CHO cell membranes expressing human GlyT1: […]
row,Compound,Ki [nM]
1,"Cn1cnc(S(=O)(=O)N2CC(c3ccccc3)C(Cc3cccc(Cl)c3)C2=O)c1 (centres unmarked) [Example 331, 3-(3-chlorobenzyl)-1-[(1-methyl-1H-imidazol-4-yl)sulfonyl]-4-phenylpyrrolidin-2-one]",≤ 1000
2,"Cn1cnc(S(=O)(=O)N2CC(c3ccc(F)cc3)C(c3ccccc3Cl)C2)c1 (centres unmarked) [Example 339, 4-{[3-(2-chlorophenyl)-4-(4-fluorophenyl)pyrrolidin-1-yl]sulfonyl}-1-methyl-1H-imidazole]",≤ 10000
3,"Cn1cnc(S(=O)(=O)N2CC(c3ccc(F)cc3)C(c3ccc(Cl)cc3)C2)c1 (centres unmarked) [Example 340, 4-{[3-(4-chlorophenyl)-4-(4-fluorophenyl)pyrrolidin-1-yl]sulfonyl}-1-methyl-1H-imidazole]",≤ 1000
4,"CC(C)Oc1cccc(NC2CN(S(=O)(=O)c3cn(C)cn3)CC2c2ccc(F)cc2)c1 (centres unmarked) [Example 349, 4-(4-fluorophenyl)-1-[(1-methyl-1H-imidazol-4-yl)sulfonyl]-N-[3-(propan-2-yloxy)phenyl]pyrrolidin-3-amine]",≤ 100
5,"Cn1cnc(S(=O)(=O)N2CC(Nc3cccnn3)C(c3ccc(F)cc3)C2)c1 (centres unmarked) [Example 350, N-{4-(4-fluorophenyl)-1-[(1-methyl-1H-imidazol-4-yl)sulfonyl]pyrrolidin-3-yl}pyridazin-3-amine]",> 10000
6,"Cn1cnc(S(=O)(=O)N2C[C@H](Nc3cccc(C(F)(F)F)n3)[C@@H](c3ccc(F)cc3)C2)c1 [Example 351, N-{(3R,4S)-4-(4-fluorophenyl)-1-[(1-methyl-1H-imidazol-4-yl)sulfonyl]pyrrolidin-3-yl}-6-(trifluoromethyl)pyridin-2-amine]",≤ 1000
7,"Cn1cnc(S(=O)(=O)N2C[C@H](Nc3cccc(F)c3)[C@@H](c3ccc(F)cc3)C2)c1 [Example 353, (3R,4S)-N-(3-fluorophenyl)-4-(4-fluorophenyl)-1-[(1-methyl-1H-imidazol-4-yl)sulfonyl]pyrrolidin-3-amine]",≤ 100
8,"Cn1cnc(S(=O)(=O)N2C[C@H](NC(=O)C3(C(F)(F)F)CC3)[C@@H](c3ccc(F)cc3)C2)c1 [Example 375, N-{(3R,4S)-4-(4-fluorophenyl)-1-[(1-methyl-1H-imidazol-4-yl)sulfonyl]pyrrolidin-3-yl}-1-(trifluoromethyl)cyclopropanecarboxamide]",≥ 10000
9,"Cn1cnc(S(=O)(=O)N2C[C@H](NCC3(C(F)(F)F)CC3)[C@@H](c3ccc(F)cc3)C2)c1 [Example 386, (3R,4S)-4-(4-fluorophenyl)-1-[(1-methyl-1H-imidazol-4-yl)sulfonyl]-N-{[-(trifluoromethyl)cyclopropyl]methyl}pyrrolidin-3-amine]",≤ 1000
10,"Cn1cnc(S(=O)(=O)N2C[C@@H](Nc3ccc(F)c(Cl)c3)[C@H](c3ccc(F)cc3)C2)c1 [Example 387, (3S,4R)-N-(3-chloro-4-fluorophenyl)-4-(4-fluorophenyl)-1-[(1-methyl-1H-imidazol-4-yl)sulfonyl]pyrrolidin-3-amine]",≤ 10000
11,"Cn1cnc(S(=O)(=O)N2C[C@H](NCc3ccc(C(F)(F)F)o3)[C@@H](c3ccc(F)cc3)C2)c1 [Example 391, (3R,4S)-4-(4-fluorophenyl)-1-[(1-methyl-1H-imidazol-4-yl)sulfonyl]-N-{[5-(trifluoromethyl)furan-2-yl]methyl}pyrrolidin-3-amine]",≤ 100
12,"Cn1cnc(S(=O)(=O)N2C[C@H](Nc3cccc(C(C)(O)C(F)(F)F)c3)[C@@H](c3ccc(F)cc3)C2)c1 (stereo partly drawn) [Example 392, 1,1,1-trifluoro-2-[3-({(3R,4S)-4-(4-fluorophenyl)-1-[(1-methyl-1H-imidazol-4-yl)sulfonyl]pyrrolidin-3-yl}amino)phenyl]propan-2-ol]",≤ 100
13,"Cn1cnc(S(=O)(=O)N2C[C@H](NCc3ccc(Cl)s3)[C@@H](c3ccc(F)cc3)C2)c1 [Example 393, (3R,4S)-N-[(5-chlorothiophen-2-yl)methyl]-4-(4-fluorophenyl)-1-[(1-methyl-1H-imidazol-4-yl)sulfonyl]pyrrolidin-3-amine]",≤ 10
14,"Cn1cnc(S(=O)(=O)N2C[C@H](NCc3ccc(C(F)(F)F)cc3Cl)[C@@H](c3ccccc3)C2)c1 [Example 394, (3R,4S)-N-[2-chloro-4-(trifluoromethyl)benzyl]-1-[(1-methyl-1H-imidazol-4-yl)sulfonyl]-4-phenylpyrrolidin-3-amine]",≤ 10
15,"Cn1cnc(S(=O)(=O)N2C[C@@H](NCc3ccc(C(F)(F)F)cc3Cl)[C@H](c3ccccc3)C2)c1 [Example 395, (3S,4R)-N-[2-chloro-4-(trifluoromethyl)benzyl]-1-[(1-methyl-1H-imidazol-4-yl)sulfonyl]-4-phenylpyrrolidin-3-amine]",≤ 1000
16,"Cn1cnc(S(=O)(=O)N2C[C@H](Nc3cc(C(F)(F)F)ccn3)[C@@H](c3ccccc3)C2)c1 [Example 396, N-{(3R,4S)-1-[(1-methyl-1H-imidazol-4-yl)sulfonyl]-4-phenylpyrrolidin-3-yl}-4-(trifluoromethyl)pyridin-2-amine]",≤ 10
17,"Cn1cnc(S(=O)(=O)N2C[C@H](Nc3cccc(C(F)(F)F)c3)[C@@H](c3ccccc3)C2)c1 [Example 397, (3R,4S)-1-[(1-methyl-1H-imidazol-4-yl)sulfonyl]-4-phenyl-N-[3-(trifluoromethyl)phenyl]pyrrolidin-3-amine]",≤ 10
18,"Cn1cnc(S(=O)(=O)N2C[C@H](Nc3cccc(C(C)(O)C(F)(F)F)c3)[C@@H](c3ccccc3)C2)c1 (stereo partly drawn) [Example 399, 1,1,1-trifluoro-2-[3-({(3R,4S)-1-[(1-methyl-1H-imidazol-4-yl)sulfonyl]-4-phenylpyrrolidin-3-yl}amino)phenyl]propan-2-ol]",≤ 100
19,"Cn1cnc(S(=O)(=O)N2C[C@H](Nc3cc(F)ccn3)[C@@H](c3ccccc3)C2)c1 [Example 405, 4-fluoro-N-{(3R,4S)-1-[(1-methyl-1H-imidazol-4-yl)sulfonyl]-4-phenylpyrrolidin-3-yl}pyridin-2-amine]",≤ 1000
20,"Cn1cnc(S(=O)(=O)N2C[C@H](Nc3ncnc4[nH]ccc34)[C@@H](c3ccccc3)C2)c1 [Example 406, N-{(3R,4S)-1-[(1-methyl-1H-imidazol-4-yl)sulfonyl]-4-phenylpyrrolidin-3-yl}-7H-pyrrolo[2,3-d]pyrimidin-4-amine]",≤ 10000
21,"Cn1cnc(S(=O)(=O)N2C[C@H](Nc3ncc(F)c(C(F)(F)F)c3F)[C@@H](c3ccccc3)C2)c1 [Example 408, 3,5-difluoro-N-{(3R,4S)-1-[(1-methyl-1H-imidazol-4-yl)sulfonyl]-4-phenylpyrrolidin-3-yl}-4-(trifluoromethyl)pyridin-2-amine]",≤ 10000
22,"Cn1cnc(S(=O)(=O)N2C[C@H](NCc3ccc(C(F)(F)F)cn3)[C@@H](c3ccccc3)C2)c1 [Example 409, (3R,4S)-1-[(1-methyl-1H-imidazol-4-yl)sulfonyl]-4-phenyl-N-{[5-(trifluoromethyl)pyridin-2-yl]methyl}pyrrolidin-3-amine]",≤ 100
23,"Cn1cnc(S(=O)(=O)N2C[C@H](Nc3cnc(C4CC4)cn3)[C@@H](c3ccccc3)C2)c1 [Example 410, 5-cyclopropyl-N-{(3R,4S)-1-[(1-methyl-1H-imidazol-4-yl)sulfonyl]-4-phenylpyrrolidin-3-yl}pyrazin-2-amine]",≤ 10000
24,"Cn1cnc(S(=O)(=O)N2C[C@H](Nc3cnc(N4CCCC4)cn3)[C@@H](c3ccccc3)C2)c1 [Example 413, N-{(3R,4S)-1-[(1-methyl-1H-imidazol-4-yl)sulfonyl]-4-phenylpyrrolidin-3-yl}-5-(pyrrolidin-1-yl)pyrazin-2-amine]",≤ 10000
25,"Cn1cnc(S(=O)(=O)N2C[C@H](NC(=O)c3cnc(Cl)cn3)[C@@H](c3ccccc3)C2)c1 [Example 415, 5-chloro-N-{(3R,4S)-1-[(1-methyl-1H-imidazol-4-yl)sulfonyl]-4-phenylpyrrolidin-3-yl}pyrazine-2-carboxamide]",≤ 10000
26,"Cn1cnc(S(=O)(=O)N2C[C@H](Nc3ccc(F)c(F)c3)[C@@H](c3ccc(F)cc3)C2)c1 [Example 418, (3R,4S)-N-(3,4-difluorophenyl)-4-(4-fluorophenyl)-1-[(1-methyl-1H-imidazol-4-yl)sulfonyl]pyrrolidin-3-amine]",≤ 100
27,"Cn1cnc(S(=O)(=O)N2C[C@H](Nc3cccc4c3CNC4=O)[C@@H](c3ccccc3)C2)c1 [Example 421, 4-({(3R,4S)-1-[(1-methyl-1H-imidazol-4-yl)sulfonyl]-4-phenylpyrrolidin-3-yl}amino)-2,3-dihydro-1H-isoindol-1-one]",≤ 10000
28,"Cn1cnc(S(=O)(=O)N2C[C@H](Nc3cccc(S(C)(=O)=O)c3)[C@@H](c3ccccc3)C2)c1 [Example 422, (3R,4S)-1-[(1-methyl-1H-imidazol-4-yl)sulfonyl]-N-[3-(methylsulfonyl)phenyl]-4-phenylpyrrolidin-3-amine]",≤ 1000
29,"Cn1cnc(S(=O)(=O)N2C[C@H](NCC3CNC(C(F)(F)F)CN3)[C@@H](c3ccccc3)C2)c1 (stereo partly drawn) [Example 423, (3R,4S)-1-[(1-methyl-1H-imidazol-4-yl)sulfonyl]-4-phenyl-N-{[5-(trifluoromethyl)piperazin-2-yl]methyl}pyrrolidin-3-amine]",≤ 10000
